From patent US20230241229A1, “A SAPOGENIN POLYETHYLENE GLYCOL ESTER COMPLEX OF FORMULA-I, A COMPOSITION, PROCESS OF PREPARATION, AND APPLICATIONS THEREOF” (PHYTOSOL INDIA PRIVATE LIMITED, priority 2020, published 2023)

Test: Solubility of the compositions by adding water
Assay type: physicochemical
Conditions: component weight 100 mg
Procedure: Solubility of the Compositions I, II and III are determined by adding water to the composition and control curcumin (without the Diosgenin polyethylene glycol succinate).

Water in ml require to solubilize: >1000 mL
Structure (SMILES): COc1cc(/C=C/C(=O)CC(=O)/C=C/c2ccc(O)c(OC)c2)ccc1O [Control, Curcumin]
